Assay results: patent publication US20110045101A1, “FUNGICIDAL SUBSTITUTED AZOLES” (E.I. Du Pont De Nemours and Company, priority 2009, published 2011)
Marks after values point to notes of the source that are not given here.

Key:
Assay type in all cases: in vivo
[1] = tested on: Botrytis cinerea; assay: Test C: tomato Botrytis on tomato seedlings, sprayed the day before inoculation, visual disease rating; conditions: 100 = 100% disease control; for pest or weed control at 200 ppm: Botrytis cinerea, 120 h
In short: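 Rate: 200 ppm sprayed to run-off, corresponding to 500 g/ha; flagged values used 40 ppm. Vehicle was aqueous acetone (1:1) plus 250 ppm surfactant, compounds predissolved in acetone at 3% of volume. Plants were tomato seedlings.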

[2] = tested on: Erysiphe graminis f. sp. tritici; assay: Test J: wheat powdery mildew on wheat seedlings, sprayed the day before inoculation, visual disease rating; conditions: 100 = 100% disease control; for pest or weed control at 200 ppm: Blumeria graminis, 168 h
In short: (§1)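 Plants received a run-off spray at 200 ppm (equivalent to 500 g/ha) or, for starred values, 40 ppm. Formulation used acetone at 3% of volume in a 50/50 acetone/water mix carrying 250 ppm Trem® 014.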

[3] = tested on: Puccinia recondita f. sp. tritici; assay: Test H: wheat leaf rust, test suspension sprayed after inoculation of wheat seedlings, visual disease rating; conditions: 100 = 100% disease control; for pest or weed control at 200 ppm: Puccinia recondita, 96 h
In short: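 Wheat seedlings inoculated with P. recondita spores, held 24 h saturated at 20 °C, then 2 days in growth chamber at 20 °C; compound suspension (acetone/water with Trem 014) sprayed to run-off afterwards. Rated visually; 200 ppm (≈500 g/ha) unless marked *, which denotes 40 ppm.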

[4] = tested on: Septoria tritici; assay: Test G: wheat leaf blotch on wheat seedlings, sprayed the day before inoculation, visual disease rating; conditions: 100 = 100% disease control; for pest or weed control at 200 ppm: Zymoseptoria tritici, 504 h
In short: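 Spray to run-off, 200 ppm (≈500 g/ha; starred = 40 ppm), acetone/water 50/50 + 250 ppm Trem® 014. Spore inoculation +1 d. 24° C saturated 48 h → 20° C 19 d. Visual rating.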

[5] = tested on: Puccinia recondita f. sp. tritici; assay: Test I: wheat leaf rust on wheat seedlings, sprayed the day before inoculation, visual disease rating; conditions: 100 = 100% disease control; for pest or weed control at 200 ppm: Puccinia recondita, 168 h
In short: as §1

[6] = tested on: Alternaria solani; assay: Test D: tomato early blight, sprayed the day before inoculation, visual disease rating; conditions: 100 = 100% disease control; for pest or weed control at 200 ppm: Alternaria solani, 168 h
In short: as §1

[7] = tested on: Septoria nodorum; assay: Test F: wheat glume blotch on wheat seedlings, sprayed the day before inoculation, visual disease rating; conditions: 100 = 100% disease control; for pest or weed control at 200 ppm: Parastagonospora nodorum, 264 h
In short: as §1

[8] = 200 ppm, 0 = no control relative to controls
[9] = 40 ppm (marked *), 0 = no control

Compound	Test C disease control rating [1, 8]	Test J disease control rating [2, 8]	Test H disease control rating [3, 8]	Test G disease control rating [4, 8]	Test I disease control rating [5, 8]	Test D disease control rating [6, 8]	Test F disease control rating [7, 8]	also measured
COc1cc(F)c(-n2nnc(Br)c2-c2ccc(Cl)cc2)c(F)c1 [compound 474]	99%	95%	0%	90%	36%	57%	0%	–
Fc1cccc(-n2c(Br)nc(Cl)c2-c2c(F)ccc(F)c2F)c1 [compound 368]	99%	96%	0%	92%	99%	100%	0%	–
COc1cc(F)c(-c2c(Cl)nc(Br)n2Cc2ccc(Cl)nc2)c(F)c1 [compound 670]	100%	94%	0%	98%	98%	100%	100%	–
Cc1ccc(-n2cnc(Br)c2-c2c(F)ccc(F)c2Cl)cc1 [compound 410]	98%	100%	0%	100%	99%	99%	0%	–
COc1cc(F)c(-n2c(Cl)nc(C)c2-c2ccc(Cl)cc2)c(F)c1 [compound 396]	–	–	–	–	–	–	–	Test C disease control rating [1, 9]: 100* %; Test J disease control rating [2, 9]: 99* %; Test H disease control rating [3, 9]: 0* %; Test G disease control rating [4, 9]: 93* %; Test I disease control rating [5, 9]: 100* %; Test D disease control rating [6, 9]: 100* %; Test F disease control rating [7, 9]: 99* %
COc1ccc(F)c(-c2c(C)nc(C)n2-c2ccc(F)cc2)c1F [Compound 549, 5-(2,6-difluoro-3-methoxyphenyl)-1-(4-fluorophenyl)-2,4-dimethyl-1H-imidazole]	–	–	–	–	–	–	–	pest or weed control at 200 ppm [1, 8]: 100%; pest or weed control at 200 ppm [2, 8]: 100%; pest or weed control at 200 ppm [3, 8]: 0%; pest or weed control at 200 ppm [4, 8]: 98%; pest or weed control at 200 ppm [5, 8]: 100%; pest or weed control at 200 ppm [6, 8]: 100%; pest or weed control at 200 ppm [7, 8]: 99%
CN(C)c1ncn(Cc2ccc(Cl)cc2)c1-c1c(F)ccc(F)c1F [compound 267]	–	–	–	–	–	–	–	Test C disease control rating ([1]; 200 ppm, 0 = no control): 98%; Test J disease control rating ([2]; 200 ppm, 0 = no control): 97%; Test H disease control rating ([3]; 200 ppm, 0 = no control): 9%; Test G disease control rating ([4]; 200 ppm, 0 = no control): 91%; Test I disease control rating ([5]; 200 ppm, 0 = no control): 86%; Test D disease control rating ([6]; 200 ppm, 0 = no control): 0%; Test F disease control rating ([7]; 200 ppm, 0 = no control): 0%
COc1cc(F)c(-c2c(Cl)ncn2-c2cccc(OC(F)(F)F)c2)c(F)c1 [compound 558]	100%	100%	15%	94%	99%	0%	0%	–
Cc1nc(Cl)c(Cc2c(F)cc(F)cc2F)n1-c1ccc(Cl)cc1 [compound 531]	100%	95%	41%	99%	99%	0%	0%	–
COc1cc(F)c(-c2c(Cl)nc(Br)n2-c2ccc(OC)c(Cl)c2)c(F)c1 [compound 645]	–	–	–	–	–	–	–	Test C disease control rating ([1]; 40 ppm (marked *)): 99* %; Test J disease control rating ([2]; 40 ppm (marked *)): 35* %; Test H disease control rating ([3]; 40 ppm (marked *)): 0* %; Test G disease control rating ([4]; 40 ppm (marked *)): 95* %; Test I disease control rating ([5]; 40 ppm (marked *)): 83* %; Test D disease control rating ([6]; 40 ppm (marked *)): 17* %; Test F disease control rating ([7]; 40 ppm (marked *)): 0* %
COc1ccc(F)c(-c2c(N(C)C)ncn2Cc2ccc(Cl)cc2)c1F [compound 271]	–	–	–	–	–	–	–	Test C disease control rating ([1]; 200 ppm, 0 = no control): 99%; Test J disease control rating ([2]; 200 ppm, 0 = no control): 0%; Test H disease control rating ([3]; 200 ppm, 0 = no control): 0%; Test G disease control rating ([4]; 200 ppm, 0 = no control): 82%; Test I disease control rating ([5]; 200 ppm, 0 = no control): 83%; Test D disease control rating ([6]; 200 ppm, 0 = no control): 9%; Test F disease control rating ([7]; 200 ppm, 0 = no control): 0%
Fc1cc(-n2c(Cl)nc(CCl)c2-c2ccnc(Br)c2)ccc1Cl [compound 353]	0%	0%	0%	8%	41%	0%	0%	–
COc1ccc(F)c(-c2c(Br)nc(Br)n2-c2ccc(Cl)cc2)c1F [compound 471]	100%	100%	0%	97%	98%	100%	100%	–
Cc1nc(Cl)c(-c2c(F)cccc2F)n1-c1ccc(Cl)c2ccccc12 [compound 304]	–	–	–	–	–	–	–	Test C disease control rating [1, 9]: 0* %; Test J disease control rating [2, 9]: 0* %; Test H disease control rating [3, 9]: 0* %; Test G disease control rating [4, 9]: 27* %; Test I disease control rating [5, 9]: 0* %; Test D disease control rating [6, 9]: 0* %; Test F disease control rating [7, 9]: 0* %
COc1cc(F)c(-n2c(Cl)nc(CCl)c2-c2ccc(Cl)cc2)c(F)c1 [compound 397]	–	–	–	–	–	–	–	Test C disease control rating [1, 9]: 100* %; Test J disease control rating [2, 9]: 13* %; Test H disease control rating [3, 9]: 0* %; Test G disease control rating [4, 9]: 94* %; Test I disease control rating [5, 9]: 88* %; Test D disease control rating [6, 9]: 98* %; Test F disease control rating [7, 9]: 0* %
COc1ccc(-n2c(Br)nc(C)c2-c2c(F)cccc2F)cn1 [compound 719]	99%	100%	99%	99%	100%	100%	98%	–
COc1ccc(F)c(-c2c(Cl)nc(Br)n2-c2ccc(C)c(F)c2)c1F [compound 551]	100%	100%	0%	98%	100%	100%	96%	–
COc1ccc(F)c(-c2c(Cl)nc(Cl)n2-c2ccc(Br)cc2)c1F [compound 562]	100%	100%	0%	100%	99%	100%	99%	–
Fc1cc(-n2cnc(Br)c2-c2c(F)ccc(F)c2Cl)ccc1Cl [compound 409]	100%	98%	0%	100%	96%	9%	0%	–
Cc1nc(C)n(-c2ccc(Cl)c(F)c2)c1-c1c(F)ccc(F)c1Cl [compound 489]	–	–	–	–	–	–	–	Test C disease control rating ([1]; 40 ppm (marked *)): 96* %; Test J disease control rating ([2]; 40 ppm (marked *)): 100* %; Test H disease control rating ([3]; 40 ppm (marked *)): 0* %; Test G disease control rating ([4]; 40 ppm (marked *)): 93* %; Test I disease control rating ([5]; 40 ppm (marked *)): 100* %; Test D disease control rating ([6]; 40 ppm (marked *)): 98* %; Test F disease control rating ([7]; 40 ppm (marked *)): 0* %
COc1cc(F)c(-c2c(Cl)nc(C)n2-c2ccc(C(F)(F)F)nc2)c(F)c1 [Compound 713, 5-[4-chloro-5-(2,6-difluoro-4-methoxyphenyl)-2-methyl-1H-imidazol-1-yl]-2-(trifluoromethyl)pyridine]	–	–	–	–	–	–	–	pest or weed control at 200 ppm [1, 8]: 100%; pest or weed control at 200 ppm [2, 8]: 100%; pest or weed control at 200 ppm [3, 8]: 78%; pest or weed control at 200 ppm [4, 8]: 100%; pest or weed control at 200 ppm [5, 8]: 100%; pest or weed control at 200 ppm [6, 8]: 100%; pest or weed control at 200 ppm [7, 8]: 100%
Cc1ccc(-n2c(Br)nc(Br)c2-c2c(F)ccc(F)c2F)cc1 [compound 461]	–	–	–	–	–	–	–	Test C disease control rating ([1]; 40 ppm (marked *)): 99* %; Test J disease control rating ([2]; 40 ppm (marked *)): 98* %; Test H disease control rating ([3]; 40 ppm (marked *)): 0* %; Test G disease control rating ([4]; 40 ppm (marked *)): 94* %; Test I disease control rating ([5]; 40 ppm (marked *)): 97* %; Test D disease control rating ([6]; 40 ppm (marked *)): 99* %; Test F disease control rating ([7]; 40 ppm (marked *)): 0* %
COc1ccc(F)c(-c2c(Br)nc(Cl)n2-c2ccc(C)cc2)c1F [compound 517]	100%	100%	0%	98%	99%	100%	96%	–
